{"source": "paper PMC5856786", "about": "“A DHODH inhibitor increases p53 synthesis and enhances tumor cell killing by p53 degradation blockage” (Nature Communications, 2018)", "key": {"[1]": {"tested_on": "HNDF cells", "experiment": "PI flow cytometry, sub-G1 cells, HNDF", "format": "cell-based, human", "protocol": "(§1) Cell cycle distribution analysis was performed on a Becton Dickinson FACScan flow cytometer or FACSCalibur (BD Biosciences) following staining with propidium iodide (PI) or dual labeling with BrdU and PI[36]. These assays were analyzed using CellQuest Pro (BD Biosciences)."}, "[2]": {"tested_on": "p53-dependent transcription in ARN8 human melanoma cells", "experiment": "p53-dependent transcription reporter (CPRG assay) in ARN8 cells", "format": "cell-based", "conditions": "cultured cells; authors' response in peer review file", "protocol": "A 20,000 compound library was purchased from ChemBridge consisting of 10,000 from the DIVERSet and 10,000 from the CombiSet libraries. […] A total of 30,000 additional compounds from the ChemBridge DIVERSet that were previously screened in a T22 cell background[12] were re-screened in ARN8 cells at 5 µM. The ChemBridge codes for these compounds can be made available upon request. All chemical synthesis is detailed in Supplementary Information with NMR spectra and reaction schemes detailed in Supplementary Figs. 13–19."}, "[3]": {"tested_on": "ARN8 xenograft", "experiment": "ARN8 subcutaneous xenograft", "format": "in vivo", "conditions": "ARN8 xenograft", "outline": "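NSG mice (n = 8 per group) received 2 × 10^6 ARN8 cells subcutaneously in the flank in PBS:Matrigel (3:1). Treatment with (R)-HZ05 combined with nutlin-3a, at a previously determined maximum tolerated dose, started at ~50 mm^3 tumors. Volumes were caliper-measured every second day as π(length × width × height)/6.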"}, "[4]": {"tested_on": "U2OS cells", "experiment": "PI flow cytometry, sub-G1 cells, U2OS", "format": "cell-based", "protocol": "as §1"}, "[5]": {"tested_on": "p53-induced mRNAs in ARN8 cells", "experiment": "q-RT-PCR of p53-induced mRNAs and p53 mRNA", "format": "cell-based, human", "protocol": "Supplementary Figure 1. HZ compounds increase the levels of p53-induced mRNAs. a) p53-null H1299 cells were transfected with the RGCΔ FosLacZ reporter construct and levels of p53-dependent transcription were determined by CPRG assay following a 16 h exposure to HZ00. A vector expressing wild-type p53 was used as a positive control. The average of three […]\nfor 1 hour prior to treatment with 2 µM nutlin-3 for an additional 18 hours. Levels of p53-induced mRNAs and p53 mRNA were determined by q-RT-PCR. tbp was used as a control.\nValues correspond to the average of three technical repeats with standard deviation used for error. RNA extraction and q-RT-PCR were performed as previously described - see supplementary information7. c) HCT116 p53 wild-type or p53 deficient cells were treated […]\nsupplementary information for cell line description8. d) ARN8 cells treated for 6 hours with HZ00 at indicated doses. Levels of p53 mRNA were determined by q-RT-PCR. […]"}, "[6]": {"tested_on": "cyclin-dependent kinases (CDKs)", "experiment": "33PanQinase radiometric kinase assay, panel of 16 CDKs (Supplementary Table 1)", "format": "biochemical", "description": "(§2) Supplementary Table 1. In vitro inhibition (% remaining activity) of cyclin-dependent\n(§3) ProQinase GmbH (Freiburg, Germany) using a radiometric protein kinase assay\n(§4) (33PanQinase® Activity Assay).\n(§5) (1 picture or pasted object on this page, not shown here)"}, "[7]": {"tested_on": "P-chk1 (Ser 345)/chk1 in ARN8 cells", "experiment": "P-chk1/chk1 ratio by western blotting, ARN8", "format": "cell-based, human", "conditions": "first blot (taken as ARN8)", "description": "(Ser 345) and chk1 were detected. Ponceau S staining was used to monitor loading. […]"}, "[8]": {"tested_on": "total RNA in ARN8 cells", "experiment": "Total RNA quantification", "format": "cell-based, human", "protocol": "(§6) Cells were fixed in 4 % paraformaldehyde made in PBS followed by 10 min at 37 °C, permeabilization in 0.15 % Triton X-100 for 1-2 min at 37 °C, and staining with antibodies against nucleolin and p53. Images were taken using Olympus IX-71 microscope controlled by Delta Vision SoftWorx. Image stacks were deconvolved, quick-projected and saved as tiff images to be processed using Adobe PhotoShop. Antibodies to specific antigens are listed in Supplementary Table 8. b) ARN8 […]\n(§7) was extracted and quantified. […]"}, "[9]": {"tested_on": "nucleoli in HCT116 cells", "experiment": "Immunofluorescence of nucleolin and p53", "format": "cell-based", "conditions": "Supplementary Fig. 4a", "protocol": "Protein extracts were prepared in 1× LDS sample buffer (Invitrogen) with 100 mM DTT and separated and transferred using the Invitrogen western blotting system except in Supplementary Fig. 1c where the BioRad western blotting system was used. HRP-conjugated secondary antibodies were obtained from Dako (#P016102 and #P0211702) or Santa Cruz (#SC-2020). Immunofluorescence was performed by fixing cells in 4% paraformaldehyde freshly made in PBS for 10 min at 37 °C. Following fixation, cells were permeabilized in 0.15% Triton X-100 for 1–2 min at 37 °C followed by staining with the indicated antibodies. Images were taken using Olympus IX-71 microscope controlled by DeltaVision SoftWoRx. Image stacks were deconvolved, quick-projected and saved as tiff images to be processed using Adobe Photoshop. Antibodies to specific antigens are listed in Supplementary Table 8. All original films for blots in Fig. 1 are shown in Supplementary Figs. 9–12.\nas §6, with “PhotoShop.” for “PhotoShop. Antibodies to specific antigens are listed in Supplementary Table 8. b) ARN8”\nas §7"}, "[10]": {"tested_on": "lipid kinases", "experiment": "ADP-Glo kinase assays, panel of 16 lipid kinases (Supplementary Table 3)", "format": "biochemical", "description": "Supplementary Table 3. In vitro inhibition (% remaining activity) of lipid […]\nkinases using ADP-Glo™ kinase assays (Promega) according to manufacturer ’s instructions (International Centre for Kinase Profiling, Dundee, UK).\nas §5"}, "[11]": {"biological_target": "CDK7/CycH/MAT1 (Homo sapiens, UniProt P50613)", "sequence (P50613 whole entry)": "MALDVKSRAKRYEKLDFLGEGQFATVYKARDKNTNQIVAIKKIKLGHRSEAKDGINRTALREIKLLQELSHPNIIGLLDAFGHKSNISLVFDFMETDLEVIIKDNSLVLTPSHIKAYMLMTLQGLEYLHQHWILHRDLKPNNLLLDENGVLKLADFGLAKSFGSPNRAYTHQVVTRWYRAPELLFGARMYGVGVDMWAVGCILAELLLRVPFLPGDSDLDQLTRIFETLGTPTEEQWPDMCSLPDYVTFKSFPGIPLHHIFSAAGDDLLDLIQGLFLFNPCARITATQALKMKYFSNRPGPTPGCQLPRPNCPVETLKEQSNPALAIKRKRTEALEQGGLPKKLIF", "sequence (P51946 whole entry partner)": "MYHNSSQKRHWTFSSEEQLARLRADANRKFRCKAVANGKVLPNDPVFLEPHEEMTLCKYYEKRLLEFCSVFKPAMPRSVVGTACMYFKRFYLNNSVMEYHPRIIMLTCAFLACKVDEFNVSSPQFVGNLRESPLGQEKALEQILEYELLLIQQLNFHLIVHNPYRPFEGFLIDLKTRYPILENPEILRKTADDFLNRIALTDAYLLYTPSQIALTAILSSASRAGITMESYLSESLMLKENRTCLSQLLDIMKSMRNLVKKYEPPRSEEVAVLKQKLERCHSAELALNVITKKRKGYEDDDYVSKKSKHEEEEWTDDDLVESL", "sequence (P51948 whole entry partner)": "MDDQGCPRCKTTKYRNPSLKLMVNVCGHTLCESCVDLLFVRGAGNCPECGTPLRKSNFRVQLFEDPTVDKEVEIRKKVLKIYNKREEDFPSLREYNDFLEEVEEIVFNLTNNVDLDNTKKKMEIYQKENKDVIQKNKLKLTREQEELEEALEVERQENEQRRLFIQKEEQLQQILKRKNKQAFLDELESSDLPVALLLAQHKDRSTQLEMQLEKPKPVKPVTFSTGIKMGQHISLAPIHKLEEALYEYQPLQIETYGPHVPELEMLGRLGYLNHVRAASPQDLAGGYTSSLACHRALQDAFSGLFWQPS", "experiment": "biochemical", "design": "radiometric 33PanQinase protein kinase activity assay, CDK/cyclin panel, per cent remaining activity", "conditions": "read-out: HZ00 10 µM Average (% remaining activity)", "description": "as §2, §3, §4\n(1 picture or pasted object on this page, not shown here) 32 Supplementary Table 1. In vitro inhibition (% remaining activity) of cyclin-dependent kinases (CDKs)."}, "[12]": {"conditions": "HZ05 1 μM 72 h + 48 h, 2 μM nutlin-3a last 48 h"}, "[13]": {"conditions": "HZ05 1 μM 72 h + 48 h, DMSO last 48 h"}}}
{"compound": "O=C(NC1CCCc2c1cnn2-c1ccccc1F)c1onc2c1CCCC2", "note": "(centres unmarked) [HZ05]", "values": [{"measurement": "sub-G1 cells", "setting": "[1]; [12]", "result": 1.9, "unit": "%"}, {"measurement": "sub-G1 cells", "setting": "[1]; [13]", "result": 2.2, "unit": "%"}, {"measurement": "sub-G1 cells", "setting": "[1]; HZ05 1 μM, 72 h treatment", "result": 1.9, "unit": "%"}, {"measurement": "sub-G1 cells", "setting": "[1]; HZ05 2.5 μM, 72 h treatment", "result": 2.9, "unit": "%"}, {"measurement": "concentration activating p53-dependent transcription", "setting": "[2]", "result": "below 40 nM"}, {"measurement": "xenograft tumor growth, combination with nutlin-3a", "setting": "[3]; (R)-HZ05 75 mg/kg q.d. s.c. + nutlin-3a 50 mg/kg b.i.d. orally, 10 days", "result": "statistically significant reduction in xenograft growth"}, {"measurement": "xenograft tumor growth, single agent", "setting": "[3]; (R)-HZ05 75 mg/kg q.d. s.c. or nutlin-3a 50 mg/kg b.i.d. orally", "result": "ineffective"}, {"measurement": "sub-G1 cells", "setting": "[4]; [12]", "result": 38.2, "unit": "%"}, {"measurement": "sub-G1 cells", "setting": "[4]; [13]", "result": 25.7, "unit": "%"}, {"measurement": "sub-G1 cells", "setting": "[4]; HZ05 1 μM, 72 h treatment", "result": 3.7, "unit": "%"}, {"measurement": "sub-G1 cells", "setting": "[4]; HZ05 2.5 μM, 72 h treatment", "result": 4.8, "unit": "%"}]}
{"compound": "O=C(NC1CCCc2c1cnn2-c1ccccc1F)c1ccccn1", "note": "(centres unmarked) [HZ00]", "values": [{"measurement": "mRNA of p53 target genes", "setting": "[5]", "result": "raised the mRNA of p53 target genes"}, {"measurement": "inhibition of cyclin-dependent kinases", "setting": "[6]", "result": "did not detect inhibition"}, {"measurement": "P-chk1/chk1", "setting": "[7]; HZ00 10 µM, 24 h", "result": 1.02}, {"measurement": "P-chk1/chk1", "setting": "[7]; HZ00 10 µM, 48 h", "result": 1.28}, {"measurement": "P-chk1/chk1", "setting": "[7]; HZ00 10 µM, 72 h", "result": 0.78}, {"measurement": "P-chk1/chk1", "setting": "[7]; HZ00 20 µM, 24 h", "result": 0.94}, {"measurement": "P-chk1/chk1", "setting": "[7]; HZ00 20 µM, 48 h", "result": 1.41}, {"measurement": "P-chk1/chk1", "setting": "[7]; HZ00 20 µM, 72 h", "result": 0.87}, {"measurement": "total RNA levels", "setting": "[8]", "result": "drop in total RNA levels"}, {"measurement": "effect on nucleoli", "setting": "[9]", "result": "nucleoli were disrupted"}, {"measurement": "inhibition of lipid kinases", "setting": "[10]", "result": "did not detect inhibition"}, {"measurement": "remaining activity at 10 µM", "setting": "[11]", "result": 96.2, "unit": "%"}]}
